# According to PubChem BioAssay (NCI):
#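 Five concentrations, 48 hours, 96-well plates. TGI: concentration producing complete growth inhibition.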
# Legend:
# Assay in all cases: NCI-60 cell line screen, 48 h
# [1] = tested on: 786-0 renal
# [2] = tested on: A498 renal
# [3] = tested on: A549 NSCLC
# [4] = tested on: ACHN renal
# [5] = tested on: BT-549 breast
# [6] = tested on: CAKI-1 renal
# [7] = tested on: COLO 205 colon
# [8] = tested on: DU-145 prostate
# [9] = tested on: EKVX NSCLC
# [10] = tested on: HCT-116 colon
# [11] = tested on: HCT-15 colon
# [12] = tested on: HL-60(TB) leukemia
# [13] = tested on: HOP-62 NSCLC
# [14] = tested on: HOP-92 NSCLC
# [15] = tested on: HT29 colon
# [16] = tested on: IGROV1 ovarian
# [17] = tested on: K-562 leukemia
# [18] = tested on: KM12 colon
# [19] = tested on: LOX IMVI melanoma
# [20] = tested on: M14 melanoma
# [21] = tested on: MCF7 breast
# [22] = tested on: MDA-MB-231 breast
# [23] = tested on: MOLT-4 leukemia
# [24] = tested on: NCI-H226 lung
# [25] = tested on: NCI-H23 lung
# [26] = tested on: NCI-H460 lung
# [27] = tested on: NCI/ADR-RES ovarian
# [28] = tested on: OVCAR-3 ovarian
# [29] = tested on: OVCAR-4 ovarian
# [30] = tested on: OVCAR-5 ovarian
# [31] = tested on: OVCAR-8 ovarian
# [32] = tested on: PC-3 prostate
# [33] = tested on: RPMI-8226 leukemia
# [34] = tested on: RXF 393 renal
# [35] = tested on: SF-268 CNS
# [36] = tested on: SF-295 CNS
# [37] = tested on: SF-539 CNS
# [38] = tested on: SK-MEL-2 melanoma
# [39] = tested on: SK-MEL-28 melanoma
# [40] = tested on: SK-MEL-5 melanoma
# [41] = tested on: SK-OV-3 ovarian
# [42] = tested on: SN12C renal
# [43] = tested on: SNB-19 CNS
# [44] = tested on: SNB-75 CNS
# [45] = tested on: SR leukemia
# [46] = tested on: SW-620 colon
# [47] = tested on: T-47D breast
# [48] = tested on: TK-10 renal
# [49] = tested on: U251 CNS
# [50] = tested on: UACC-257 melanoma
# [51] = tested on: UACC-62 melanoma
# [52] = tested on: UO-31 renal
# [53] = tested on: CCRF-CEM leukemia
# [54] = tested on: MALME-3M melanoma
# [55] = tested on: MDA-MB-435
smiles,measurement,setting,value
NN/C(=N\S(=O)(=O)c1cc2ccccc2s1)Nc1ccc(Cl)cc1,TGI,[1],35.4 µM
same,TGI,[2],39.5 µM
same,TGI,[3],39.8 µM
same,TGI,[4],54.4 µM
same,TGI,[5],35.6 µM
same,TGI,[6],39.4 µM
same,TGI,[7],33 µM
same,TGI,[8],32.3 µM
same,TGI,[9],42.2 µM
same,TGI,[10],30.6 µM
same,TGI,[11],> 100 µM
same,TGI,[12],48 µM
same,TGI,[13],38.2 µM
same,TGI,[14],39.6 µM
same,TGI,[15],38.9 µM
same,TGI,[16],36.4 µM
same,TGI,[17],> 100 µM
same,TGI,[18],48.1 µM
same,TGI,[19],38.6 µM
same,TGI,[20],37.9 µM
same,TGI,[21],42.4 µM
same,TGI,[22],40.4 µM
same,TGI,[23],68 µM
same,TGI,[24],36.5 µM
same,TGI,[25],41.4 µM
same,TGI,[26],39.6 µM
same,TGI,[27],46.4 µM
same,TGI,[28],34.5 µM
same,TGI,[29],38.5 µM
same,TGI,[30],48.2 µM
same,TGI,[31],47.9 µM
same,TGI,[32],62.4 µM
same,TGI,[33],35.6 µM
same,TGI,[34],29.6 µM
same,TGI,[35],37.9 µM
same,TGI,[36],43.2 µM
same,TGI,[37],29.8 µM
same,TGI,[38],34.5 µM
same,TGI,[39],75 µM
same,TGI,[40],31.8 µM
same,TGI,[41],> 100 µM
same,TGI,[42],39 µM
same,TGI,[43],64.6 µM
same,TGI,[44],38.7 µM
same,TGI,[45],73.9 µM
same,TGI,[46],54.9 µM
same,TGI,[47],37.8 µM
same,TGI,[48],51.2 µM
same,TGI,[49],34.5 µM
same,TGI,[50],37.3 µM
same,TGI,[51],35.5 µM
same,TGI,[52],32.1 µM
O=S(=O)(N=S(c1ccccc1)c1ccccc1)c1ccccc1,TGI,[1],> 100 µM
same,TGI,[2],> 100 µM
same,TGI,[3],> 100 µM
same,TGI,[4],> 100 µM
same,TGI,[5],> 100 µM
same,TGI,[53],> 100 µM
same,TGI,[7],> 100 µM
same,TGI,[8],> 100 µM
same,TGI,[9],> 100 µM
same,TGI,[10],> 100 µM
same,TGI,[11],> 100 µM
same,TGI,[12],> 100 µM
same,TGI,[13],> 100 µM
same,TGI,[14],> 100 µM
same,TGI,[15],> 100 µM
same,TGI,[17],> 100 µM
same,TGI,[18],> 100 µM
same,TGI,[20],> 100 µM
same,TGI,[54],> 100 µM
same,TGI,[21],> 100 µM
same,TGI,[55],> 100 µM
same,TGI,[23],> 100 µM
same,TGI,[24],> 100 µM
same,TGI,[25],> 100 µM
same,TGI,[26],> 100 µM
same,TGI,[27],> 100 µM
same,TGI,[28],> 100 µM
same,TGI,[30],> 100 µM
same,TGI,[31],> 100 µM
same,TGI,[32],> 100 µM
same,TGI,[33],> 100 µM
same,TGI,[34],> 100 µM
same,TGI,[35],> 100 µM
same,TGI,[36],> 100 µM
same,TGI,[37],> 100 µM
same,TGI,[39],> 100 µM
same,TGI,[42],> 100 µM
same,TGI,[43],> 100 µM
same,TGI,[45],> 100 µM
same,TGI,[46],> 100 µM
same,TGI,[47],> 100 µM
same,TGI,[48],> 100 µM
same,TGI,[49],> 100 µM
same,TGI,[50],> 100 µM
same,TGI,[52],> 100 µM
